What was measured:
Type in all cases: functional
[1] = system: NCI-H460; assay: Cytotoxicity against human NCI-H460 cells assessed as growth inhibition at 1 ug/ml after 24 hrs by MTT assay; details: NCI-H460, 24 h, read-out: GI
[2] = system: NCI-H460; assay: Cytotoxicity against human NCI-H460 cells assessed as growth inhibition at 0.1 ug/ml after 24 hrs by MTT assay; details: NCI-H460, 24 h, read-out: GI
[3] = Cytotoxicity against human HO8910 cells assessed as growth inhibition at 0.1 ug/ml after 24 hrs by MTT assay; details: HO-8910, 24 h, read-out: GI
[4] = system: Bel-7402; assay: Cytotoxicity against human Bel7402 cells assessed as growth inhibition at 1 ug/ml after 24 hrs by MTT assay; details: Bel-7402, 24 h, read-out: GI
[5] = system: Bel-7402; assay: Cytotoxicity against human Bel7402 cells assessed as growth inhibition at 100 ug/ml after 24 hrs by MTT assay; details: Bel-7402, 24 h, read-out: GI
[6] = system: KB; assay: Cytotoxicity against human KB cells assessed as growth inhibition at 1 ug/ml after 24 hrs by MTT assay; details: read-out: GI
[7] = Cytotoxicity against human HO8910 cells assessed as growth inhibition at 1 ug/ml after 24 hrs by MTT assay; details: HO-8910, 24 h, read-out: GI
[8] = system: Bel-7402; assay: Cytotoxicity against human Bel7402 cells assessed as growth inhibition at 0.1 ug/ml after 24 hrs by MTT assay; details: Bel-7402, 24 h, read-out: GI
[9] = system: Bel-7402; assay: Cytotoxicity against human Bel7402 cells assessed as growth inhibition at 10 ug/ml after 24 hrs by MTT assay; details: Bel-7402, 24 h, read-out: GI
[10] = system: KB; assay: Cytotoxicity against human KB cells assessed as growth inhibition at 10 ug/ml after 24 hrs by MTT assay; details: read-out: GI
[11] = system: KB; assay: Cytotoxicity against human KB cells assessed as growth inhibition at 0.1 ug/ml after 24 hrs by MTT assay; details: read-out: GI
[12] = system: NCI-H460; assay: Cytotoxicity against human NCI-H460 cells assessed as growth inhibition at 10 ug/ml after 24 hrs by MTT assay; details: NCI-H460, 24 h, read-out: GI
[13] = system: NCI-H460; assay: Cytotoxicity against human NCI-H460 cells assessed as growth inhibition at 100 ug/ml after 24 hrs by MTT assay; details: NCI-H460, 24 h, read-out: GI
[14] = system: KB; assay: Cytotoxicity against human KB cells assessed as growth inhibition at 100 ug/ml after 24 hrs by MTT assay; details: read-out: GI
[15] = Cytotoxicity against human HO8910 cells assessed as growth inhibition at 100 ug/ml after 24 hrs by MTT assay; details: HO-8910, 24 h, read-out: GI

SMILES | inhibition of growth at 1 µg/mL [1] [%] | inhibition of growth at 0.1 µg/mL [2] [%] | inhibition of growth at 0.1 µg/mL [3] [%] | inhibition of growth at 1 µg/mL [4] [%] | inhibition of growth at 100 µg/mL [5] [%] | inhibition of growth at 1 µg/mL [6] [%] | inhibition of growth at 1 µg/mL [7] [%] | inhibition of growth at 0.1 µg/mL [8] [%] | inhibition of growth at 10 µg/mL [9] [%] | inhibition of growth at 10 µg/mL [10] [%] | inhibition of growth at 0.1 µg/mL [11] [%] | inhibition of growth at 10 µg/mL [12] [%] | inhibition of growth at 100 µg/mL [13] [%] | inhibition of growth at 100 µg/mL [14] [%] | inhibition of growth at 100 µg/mL [15] [%]
O=C(CCCCC1CCSS1)Nc1cccc2ccccc12 (stereo not drawn) | 4.15 | 2.36 | 0.34 | 9.55 | 7.22 | 8.37 | 6.95 | 3.4 | 6.27 |  |  |  |  |  | 
O=C(CCCCC(CCSC(=O)c1ccccc1)SC(=O)c1ccccc1)Nc1cccc(Cl)c1 (stereo not drawn) | 9.48 | 15.6 | 9.02 |  |  | 12.7 | 3.38 | 1.7 |  | 16.6 | 10.7 | 9.12 |  |  | 
CC(=O)SCCC(CCCCC(=O)Nc1ccccc1Cl)SC(C)=O (stereo not drawn) | 13.2 | 16.6 | 2.48 | 5.01 |  | 8.21 |  | 6.61 | 3.09 | 6.55 | 7.05 | 11.4 | 15.2 | 6.93 | 
O=C(CCCCC1CCSS1)NO (stereo not drawn) | 0.64 | 3.9 |  | 7.39 | 12.5 | 2.57 |  | 10.4 | 11.8 | 0.89 | 7.92 |  |  | 12.4 | 
O=C(CCCCC(S)CCS)Nc1ccccn1 (stereo not drawn) | 2.31 | 5.01 |  |  | 3.62 |  |  |  |  | 0.28 |  |  | 11.7 | 18.5 | 14.2
O=C(CCCCC(S)CCS)Nc1ccccc1Cl (stereo not drawn) | 8.19 | 6.36 | 6.11 | 3.08 |  |  | 7.72 | 5.11 |  |  |  | 18.2 | 12.1 |  | 
O=C(CCCCC1CCSS1)Nc1ccccn1 (stereo not drawn) | 0.81 | 2.61 | 1.14 |  | 37.6 |  |  | 0.89 | 5.77 |  |  |  | 39.3 | 25.1 | 51.9
O=C(CCCCC(S)CCS)Nc1cccc2ccccc12 (stereo not drawn) |  |  | 0.76 | 0.69 |  |  |  |  |  |  |  |  | 2.18 |  | 
CC(=O)SCCC(CCCCC(=O)Nc1cccc(Cl)c1)SC(C)=O (stereo not drawn) | 0.31 |  | 0.27 | 0.56 | 20.8 | 0.04 |  | 3.72 |  |  | 5.72 | 2.09 | 42.8 | 48.8 | 38.1
O=C(CCCCC(S)CCS)Nc1cccc(Cl)c1 (stereo not drawn) | 7.2 | 9.78 |  | 1.14 | 16.1 |  |  | 3.09 | 3.22 |  |  |  | 24.8 | 8.04 | 
O=C(CCCCC(CCSC(=O)c1ccccc1)SC(=O)c1ccccc1)Nc1ccccc1 (stereo not drawn) | 5.93 | 0.6 | 3.12 |  |  |  | 3.79 |  |  | 2.67 | 1.52 | 11.4 |  |  | 
